Experimental data published in US10028508B2, “Use of active compound compositions” (BAYER CROPSCIENCE AKTIENGESELLSCHAFT, priority 2014, dated 2018).
Like-named read-outs stand apart in the source and are kept apart here.

System: Anopheles funestus metabolic-resistant strain FUMOZ-R
Experiment: Metabolic-Resistant Anopheles Test (mortality on treated tile, wood, concrete)
Assay type: in vivo
Settings: for mortality at 12.5 mg/m2: Deltamethrin 12.5 mg/m2, read-out: Mortality Effect %; for mortality at 25 mg/m2: Deltamethrin 25 mg/m2, read-out: Mortality Effect %
Procedure: To produce a suitable preparation of active compound combination the active compounds deltamethrin and clothanidin were dissolved in acetone (for the control group only one active compound was dissolved in acetone). The active compound combination preparation (and the active compound preparations) were pipetted onto a glazed tile, wood and concrete and, after drying, adult mosquitoes of the species Anopheles funestus metabolic-resistant strain FUMOZ-R (Hunt et al., Med Vet Entomol. 2005 September; 19(3):271-5) are placed onto the treated tile, wood and concrete. The exposition time is 30 minutes.
1 hour, 2 hour, 4 hour, 24 hours after contact to the treated surface, the mortality proportion of the test animals in % is determined. Here, 100% means that all mosquitoes have been killed; 0% means that none of the mosquitoes has been killed. The treated tile, wood and concrete was stored under stress conditions (30° C./80% rh). Measurement with the treated tile, wood and concrete was repeated 5 weeks (Table 1), 11 weeks (Table 2) and 60 weeks (Table 3) after the treatment with the active compound combination.

[1] = 5 weeks after treatment, Concrete, 1 h after contact
[2] = 5 weeks after treatment, Concrete, 2 h after contact
[3] = 5 weeks after treatment, Concrete, 4 h after contact
[4] = 5 weeks after treatment, Concrete, 24 h after contact
[5] = 5 weeks after treatment, Tile, 1 h after contact
[6] = 5 weeks after treatment, Tile, 2 h after contact
[7] = 5 weeks after treatment, Tile, 4 h after contact
[8] = 5 weeks after treatment, Tile, 24 h after contact
[9] = 5 weeks after treatment, Wood, 1 h after contact
[10] = 5 weeks after treatment, Wood, 2 h after contact
[11] = 5 weeks after treatment, Wood, 4 h after contact
[12] = 5 weeks after treatment, Wood, 24 h after contact
[13] = 11 weeks after treatment, Concrete, 1 h after contact
[14] = 11 weeks after treatment, Concrete, 2 h after contact
[15] = 11 weeks after treatment, Concrete, 4 h after contact
[16] = 11 weeks after treatment, Concrete, 24 h after contact
[17] = 11 weeks after treatment, Tile, 1 h after contact
[18] = 11 weeks after treatment, Tile, 2 h after contact
[19] = 11 weeks after treatment, Tile, 4 h after contact
[20] = 11 weeks after treatment, Tile, 24 h after contact
[21] = 11 weeks after treatment, Wood, 1 h after contact
[22] = 11 weeks after treatment, Wood, 2 h after contact
[23] = 11 weeks after treatment, Wood, 4 h after contact
[24] = 11 weeks after treatment, Wood, 24 h after contact
[25] = 60 weeks after treatment, Concrete, 1 h after contact
[26] = 60 weeks after treatment, Concrete, 2 h after contact
[27] = 60 weeks after treatment, Concrete, 4 h after contact
[28] = 60 weeks after treatment, Concrete, 24 h after contact
[29] = 60 weeks after treatment, Tile, 1 h after contact
[30] = 60 weeks after treatment, Tile, 2 h after contact
[31] = 60 weeks after treatment, Tile, 4 h after contact
[32] = 60 weeks after treatment, Tile, 24 h after contact
[33] = 60 weeks after treatment, Wood, 1 h after contact
[34] = 60 weeks after treatment, Wood, 2 h after contact
[35] = 60 weeks after treatment, Wood, 4 h after contact
[36] = 60 weeks after treatment, Wood, 24 h after contact

## CC1(C)[C@H](C(=O)O[C@H](C#N)c2cccc(Oc3ccccc3)c2)[C@@H]1C=C(Br)Br [Deltamethrin, deltamethrin]
[1]
  mortality at 12.5 mg/m2: 70%
  mortality at 25 mg/m2: 90%
[2]
  mortality at 12.5 mg/m2: 87%
  mortality at 25 mg/m2: 100%
[3]
  mortality at 12.5 mg/m2: 100%
  mortality at 25 mg/m2: 100%
[4]
  mortality at 12.5 mg/m2: 30%
  mortality at 25 mg/m2: 73%
[5]
  mortality at 12.5 mg/m2: 17%
  mortality at 25 mg/m2: 7%
[6]
  mortality at 12.5 mg/m2: 77%
  mortality at 25 mg/m2: 83%
[7]
  mortality at 12.5 mg/m2: 97%
  mortality at 25 mg/m2: 100%
[8]
  mortality at 12.5 mg/m2: 100%
  mortality at 25 mg/m2: 93%
[9]
  mortality at 12.5 mg/m2: 10%
  mortality at 25 mg/m2: 30%
[10]
  mortality at 12.5 mg/m2: 77%
  mortality at 25 mg/m2: 90%
[11]
  mortality at 12.5 mg/m2: 80%
  mortality at 25 mg/m2: 93%
[12]
  mortality at 12.5 mg/m2: 77%
  mortality at 25 mg/m2: 83%
[13]
  mortality at 12.5 mg/m2: 3%
  mortality at 25 mg/m2: 13%
[14]
  mortality at 12.5 mg/m2: 0%
  mortality at 25 mg/m2: 43%
[15]
  mortality at 12.5 mg/m2: 17%
  mortality at 25 mg/m2: 63%
[16]
  mortality at 12.5 mg/m2: 30%
  mortality at 25 mg/m2: 73%
[17]
  mortality at 12.5 mg/m2: 0%
  mortality at 25 mg/m2: 10%
[18]
  mortality at 12.5 mg/m2: 0%
  mortality at 25 mg/m2: 33%
[19]
  mortality at 12.5 mg/m2: 0%
  mortality at 25 mg/m2: 43%
[20]
  mortality at 12.5 mg/m2: 3%
  mortality at 25 mg/m2: 63%
[21]
  mortality at 12.5 mg/m2: 0%
  mortality at 25 mg/m2: 0%
[22]
  mortality at 12.5 mg/m2: 0%
  mortality at 25 mg/m2: 27%
[23]
  mortality at 12.5 mg/m2: 20%
  mortality at 25 mg/m2: 80%
[24]
  mortality at 12.5 mg/m2: 13%
  mortality at 25 mg/m2: 70%
[25]
  mortality at 12.5 mg/m2: 0%
  mortality at 25 mg/m2: 0%
[26]
  mortality at 12.5 mg/m2: 0%
  mortality at 25 mg/m2: 0%
[27]
  mortality at 12.5 mg/m2: 0%
  mortality at 25 mg/m2: 0%
[28]
  mortality at 12.5 mg/m2: 13%
  mortality at 25 mg/m2: 23%
[29]
  mortality at 12.5 mg/m2: 0%
  mortality at 25 mg/m2: 0%
[30]
  mortality at 12.5 mg/m2: 0%
  mortality at 25 mg/m2: 7%
[31]
  mortality at 12.5 mg/m2: 17%
  mortality at 25 mg/m2: 23%
[32]
  mortality at 12.5 mg/m2: 30%
  mortality at 25 mg/m2: 53%
[33]
  mortality at 12.5 mg/m2: 0%
  mortality at 25 mg/m2: 0%
[34]
  mortality at 12.5 mg/m2: 0%
  mortality at 25 mg/m2: 10%
[35]
  mortality at 12.5 mg/m2: 17%
  mortality at 25 mg/m2: 37%
[36]
  mortality at 12.5 mg/m2: 43%
  mortality at 25 mg/m2: 43%
